Values of other authors, collected in patent US5977101A, “Benzimidazoles/Imidazoles Linked to a Fibrinogen Receptor Antagonist Template Having Vitronectin Receptor Antagonist Activity” (SmithKline Beecham Corporation, priority 1996, dated 1999).

Legend:
[1] = test system: osteoclasts; conditions: Sato et al. 1990; Bertolini et al.
[2] = test system: bone resorption; conditions: Sato et al., J. Cell Biol. 1990
[3] = test system: bone resorption; conditions: rat; Fisher et al., Endocrinology 1993

Substance	inhibition of attachment of osteoclasts to bone [1]	inhibition of bone resorption in tissue culture [2]	inhibition of bone resorption in vivo [3]
cylco-S,S-N^α -acetyl-cysteinyl-N^α -methyl-argininyl-glycyl-aspartyl-penicillamine	inhibits		
echistatin	inhibits	potent inhibitor	inhibits
